# Laboratory results reported in ChEMBL document CHEMBL4665887, “Identification, Structure-Activity Relationships of Marine-Derived Indolocarbazoles, and a Dual PKCθ/δ Inhibitor with Potent Antipancreatic Cancer Efficacy” (J Med Chem, 2020).
# How the values were obtained:
# [1] = Toxicity in BALB/c mouse model of patient-derived xenograft implanted with patient-derived pancreatic cancer cells assessed as effect on normal anatomical structures of heart at 6 mg/kg, iv dosed once every 2 days for 18 days relative to control; type: organism-based; conditions: in vivo, 432 h, time 18 day
# [2] = target: Protein kinase C theta type (Homo sapiens, UniProt Q04759); experiment: Inhibition of PKCtheta (unknown origin) by HTRF assay
# Sequence of Protein kinase C theta type (Q04759 whole entry): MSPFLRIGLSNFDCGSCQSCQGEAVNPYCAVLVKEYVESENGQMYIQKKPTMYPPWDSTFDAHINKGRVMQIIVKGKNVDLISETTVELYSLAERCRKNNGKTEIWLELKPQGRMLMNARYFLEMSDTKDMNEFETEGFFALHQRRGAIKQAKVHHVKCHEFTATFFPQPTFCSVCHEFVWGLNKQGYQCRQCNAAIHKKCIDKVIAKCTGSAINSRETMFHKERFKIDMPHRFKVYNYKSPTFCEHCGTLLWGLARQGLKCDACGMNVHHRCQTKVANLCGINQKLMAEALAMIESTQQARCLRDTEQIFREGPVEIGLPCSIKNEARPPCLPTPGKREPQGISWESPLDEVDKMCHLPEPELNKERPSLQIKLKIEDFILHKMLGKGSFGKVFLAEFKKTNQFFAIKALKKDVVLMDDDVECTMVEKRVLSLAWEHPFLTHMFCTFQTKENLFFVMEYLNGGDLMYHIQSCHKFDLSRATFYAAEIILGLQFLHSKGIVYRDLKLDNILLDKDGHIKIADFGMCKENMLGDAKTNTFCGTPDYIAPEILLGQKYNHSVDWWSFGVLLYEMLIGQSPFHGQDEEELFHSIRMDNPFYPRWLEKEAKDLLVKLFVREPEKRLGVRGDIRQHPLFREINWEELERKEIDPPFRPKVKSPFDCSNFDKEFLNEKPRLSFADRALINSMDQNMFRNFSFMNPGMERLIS
# [3] = test system: BXPC-3; experiment: Antitumor activity against human BXPC-3 cells xenografted in nude BALB/c mouse assessed as inhibition of tumor growth at 6 mg/kg, iv QD for 18 days relative to control; type: functional; conditions: BXPC-3, iv, 432 h, time 18 day, read-out: TGI
# [4] = Toxicity in nude BALB/c mouse xenografted with human BXPC-3 cells assessed as effect on body weight level at 6 mg/kg, iv QD for 18 days relative to control; type: organism-based; conditions: in vivo, 432 h, time 18 day
# [5] = test system: BXPC-3; experiment: Cytotoxicity in human BXPC-3 cells assessed as reduction in cell viability incubated for 24 hrs by CCK8 assay; type: functional, cell-based; conditions: BXPC-3, 24 h
# [6] = test system: ASPC1; experiment: Cytotoxicity in human ASPC1 cells assessed as reduction in cell viability incubated for 24 hrs by CCK8 assay; type: functional, cell-based; conditions: ASPC1, 24 h
# [7] = test system: A549; experiment: Cytotoxicity in human A549 cells assessed as reduction in cell viability incubated for 24 hrs by CCK8 assay; type: functional, cell-based; conditions: A549, 24 h
# [8] = test system: NCI-H1299; experiment: Cytotoxicity in human NCI-H1299 cells assessed as reduction in cell viability incubated for 24 hrs by CCK8 assay; type: functional, cell-based; conditions: NCI-H1299, 24 h
# [9] = test system: NCI-H1975; experiment: Cytotoxicity in human NCI-H1975 cells assessed as reduction in cell viability incubated for 24 hrs by CCK8 assay; type: functional, cell-based; conditions: NCI-H1975, 24 h
# [10] = test system: PC-9; experiment: Cytotoxicity in human PC-9 cells assessed as reduction in cell viability incubated for 24 hrs by CCK8 assay; type: functional, cell-based; conditions: PC-9, 24 h
# [11] = test system: RKO; experiment: Cytotoxicity in human RKO cells assessed as reduction in cell viability incubated for 24 hrs by CCK8 assay; type: functional, cell-based
# [12] = test system: MGC-803; experiment: Cytotoxicity in human MGC-803 cells assessed as reduction in cell viability incubated for 24 hrs by CCK8 assay; type: functional, cell-based; conditions: MGC-803, 24 h
# [13] = test system: BXPC-3; experiment: Induction of apoptosis in human BXPC-3 cells assessed as viable cells level at 0.25 uM incubated for 24 hrs by PI and annexin V-FITC staining based flow cytometry (reference value: 93.43%); type: functional
# [14] = test system: BXPC-3; experiment: Induction of apoptosis in human BXPC-3 cells assessed as early apoptotic cells level at 0.25 uM incubated for 24 hrs by PI and annexin V-FITC staining based flow cytometry (reference value: 5.69%); type: functional
# [15] = test system: BXPC-3; experiment: Induction of apoptosis in human BXPC-3 cells assessed as late apoptotic cells level at 0.25 uM incubated for 24 hrs by PI and annexin V-FITC staining based flow cytometry (reference value: 0.83%); type: functional
# [16] = test system: BXPC-3; experiment: Induction of apoptosis in human BXPC-3 cells assessed as necrotic cells level at 0.25 uM incubated for 24 hrs by PI and annexin V-FITC staining based flow cytometry (reference value: 0.05%); type: functional
# [17] = test system: BXPC-3; experiment: Induction of apoptosis in human BXPC-3 cells assessed as viable cells level at 0.5 uM incubated for 24 hrs by PI and annexin V-FITC staining based flow cytometry (reference value: 93.43%); type: functional
# [18] = test system: BXPC-3; experiment: Induction of apoptosis in human BXPC-3 cells assessed as early apoptotic cells level at 0.5 uM incubated for 24 hrs by PI and annexin V-FITC staining based flow cytometry (reference value: 5.69%); type: functional
# [19] = test system: BXPC-3; experiment: Induction of apoptosis in human BXPC-3 cells assessed as late apoptotic cells level at 0.5 uM incubated for 24 hrs by PI and annexin V-FITC staining based flow cytometry (reference value: 0.83%); type: functional
# [20] = test system: BXPC-3; experiment: Induction of apoptosis in human BXPC-3 cells assessed as necrotic cells level at 0.5 uM incubated for 24 hrs by PI and annexin V-FITC staining based flow cytometry (reference value: 0.05%); type: functional
# [21] = target: Protein kinase C delta type (Homo sapiens, UniProt Q05655); experiment: Inhibition of PKCdelta (unknown origin) by HTRF assay
# Sequence of Protein kinase C delta type (Q05655 whole entry): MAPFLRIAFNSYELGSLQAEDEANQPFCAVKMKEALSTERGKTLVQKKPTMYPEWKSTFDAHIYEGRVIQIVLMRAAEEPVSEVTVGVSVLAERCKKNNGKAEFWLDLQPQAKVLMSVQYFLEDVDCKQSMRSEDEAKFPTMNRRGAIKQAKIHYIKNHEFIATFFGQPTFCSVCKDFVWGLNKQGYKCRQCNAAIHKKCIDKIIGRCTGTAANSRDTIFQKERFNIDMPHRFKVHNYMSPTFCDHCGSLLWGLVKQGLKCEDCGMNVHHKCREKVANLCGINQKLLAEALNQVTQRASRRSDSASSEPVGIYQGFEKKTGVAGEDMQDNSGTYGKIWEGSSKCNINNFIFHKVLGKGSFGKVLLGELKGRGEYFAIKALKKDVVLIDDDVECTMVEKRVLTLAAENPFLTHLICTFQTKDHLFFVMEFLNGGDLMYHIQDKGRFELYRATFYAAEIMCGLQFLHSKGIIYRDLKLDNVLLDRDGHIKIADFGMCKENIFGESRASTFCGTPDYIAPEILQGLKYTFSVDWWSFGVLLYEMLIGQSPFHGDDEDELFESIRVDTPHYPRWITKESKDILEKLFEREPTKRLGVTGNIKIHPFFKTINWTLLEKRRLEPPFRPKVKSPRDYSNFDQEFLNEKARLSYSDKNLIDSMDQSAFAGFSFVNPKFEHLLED
# [22] = Effect in PKCtheta protein expression in human BXPC-3 cells at 0.25 to 1 uM incubated for 4 hrs by Western blot analysis; type: ADME, cell-based; conditions: bxpc-3, 4 h, dose 0.25-1 µM
# [23] = Antitumor activity against patient-derived pancreatic cancer cells xenografted in BALB/c mouse model of patient-derived xenograft assessed as inhibition of tumor growth at 6 mg/kg, iv dosed once every 2 days for 18 days relative to control; type: functional; conditions: Homo sapiens, Pancreatic cancer cell, 432 h, time 18 day, read-out: TGI
# [24] = Toxicity in BALB/c mouse model of patient-derived xenograft implanted with patient-derived pancreatic cancer cells assessed as effect on body weight at 6 mg/kg, iv dosed once every 2 days for 18 days relative to control; type: organism-based; conditions: in vivo, 432 h, time 18 day
# [25] = Toxicity in BALB/c mouse model of patient-derived xenograft implanted with patient-derived pancreatic cancer cells assessed as effect on normal anatomical structures of liver at 6 mg/kg, iv dosed once every 2 days for 18 days relative to control; type: organism-based; conditions: in vivo, 432 h, time 18 day
# [26] = Toxicity in BALB/c mouse model of patient-derived xenograft implanted with patient-derived pancreatic cancer cells assessed as effect on normal anatomical structures of lung at 6 mg/kg, iv dosed once every 2 days for 18 days relative to control; type: organism-based; conditions: in vivo, 432 h, time 18 day
# [27] = Toxicity in BALB/c mouse model of patient-derived xenograft implanted with patient-derived pancreatic cancer cells assessed as effect on normal anatomical structures of spleen at 6 mg/kg, iv dosed once every 2 days for 18 days relative to control; type: organism-based; conditions: in vivo, 432 h, time 18 day
# [28] = Toxicity in BALB/c mouse model of patient-derived xenograft implanted with patient-derived pancreatic cancer cells assessed as effect on normal anatomical structures of kidney at 6 mg/kg, iv dosed once every 2 days for 18 days relative to control; type: organism-based; conditions: in vivo, 432 h, time 18 day
compound,measurement,setting,value
CN[C@@H]1C[C@H]2O[C@@](C)([C@@H]1OC)n1c3ccccc3c3c4c(c5c6ccccc6n2c5c31)C(=O)NC4=O (stereo in doubt; 15),Activity,[1],Non-Toxic
same,IC50,[2],0.006 µM
same,inhibition in vivo at 6 mg/kg,[3],49.6%
same,Activity,[4],Non-Toxic
same,IC50,[5],0.43 µM
same,IC50,[6],1.2 µM
same,IC50,[7],0.78 µM
same,IC50,[8],2.03 µM
same,IC50,[9],2.01 µM
same,IC50,[10],1.88 µM
same,IC50,[11],1.47 µM
same,IC50,[12],1.52 µM
same,Activity,[13],63.54%
same,Activity,[14],33.77%
same,Activity,[15],2.66%
same,Activity,[16],0.04%
same,Activity,[17],46.45%
same,Activity,[18],46.07%
same,Activity,[19],6.89%
same,Activity,[20],0.59%
same,IC50,[21],0.021 µM
same,Activity,[22],Non-Toxic
same,inhibition in vivo at 6 mg/kg,[23],56.9%
same,Activity,[24],Non-Toxic
same,Activity,[25],Non-Toxic
same,Activity,[26],Non-Toxic
same,Activity,[27],Non-Toxic
same,Activity,[28],Non-Toxic
